Read-outs that look alike come from different tables or passages of the source.
What was measured:
in vitro = assay: in vitro
Method: (§1) Plating Cells: The Huh7 cell line was passaged when it was at about 70% confluency. The cells were counted using a hemocytometer, followed by dilution of the cells to 0.5×10^5 cells per mL in DMEM+10% FBS. The cells were plated at 100 μL (5,000 cells) per well in a clear 96-well plate. The cells were allowed to attach for 24 hours at 37° C.
(§2) Treating the cells: The media (DMEM media without phenol red+2% FBS media) was pre-warmed to 37° C. […] This provided a final DMSO concentration of 0.5%. The 100 mM stock of 3,5-dichlorobenzoic acid was diluted in DMEM without phenol red+2% FBS to a concentration of 0.5 mM. The working 0.5 mM diluted test drugs were serially diluted in DMEM without phenol red+2% FBS+0.5% DMSO in order to maintain a constant concentration of DMSO in each condition. The 96-well plate was removed from the 37° C. incubator, and the media on the plate was replaced with media containing diluted test drug.
(§3) MTS Assay: The reagents from CellTiter 96 kit (Promega Corporation, Madison, Wis.) were thawed at room temperature in the dark for 1 h. The 96-well plate was removed from the 37° C. incubator at 48 h after drug treatment. 20 μL of the combined MTS/PMS reagent to each well of the plate, mixed, and the plate returned to 37° C. The absorbance of each well at 490 nm and 650 nm was determined using the Flexstation 3 microplate reader in endpoint mode every hour for 3 h. The solutions in the wells were mixed prior to each reading. The data were fit to the Emax model: y=(Emax*x)/(TC50+x), where Emax is the maximum inhibition and TC50 is the inhibitory dose 50%. Alternatively, the data can be fit to the Emax sigmoidal model: y=(Emax*x^slope)/(TC50^slope+x^slope), where slope is the Hill Slope.

Huh7 cells = assay: in vitro; details: control Huh7 cells; 48 h drug exposure; MTS
Method: as §1, §2, §3

[1] = TC50 MTS assay: PK9 cells; format: cell-based; details: human, 48 h drug treatment
Method: (§4) Plating Cells: The Huh7, HEPG2, HEK293, MCF-7, PK9, RPK9, or BxPC3 cells were passaged when they were about 70% confluent. The cells were counted using a hemocytometer, and then diluted cells to 0.5×10^5 cells per mL in DMEM+10% FBS. 100 µL of the cells (5,000 cells) were plated per well in a clear 96-well plate. The cells were allowed to attach for 24 hours at 37° C.
(§5) Treating the cells: Pre-warm the DMEM media without phenol red+2% FBS media to 37° C. […] This will bring the final DMSO concentration to 0.5%. Use these 0.5 mM dilutions to further serially the drugs in DMEM without phenol red+2% FBS+0.5% DMSO. This will keep the concentration of DMSO in each condition identical. Remove the 96-well plate from the 37° C. incubator. Replace the media on the plate with the dilutions of the drugs. Stagger these treatments by 1 h and write the treatment time on each set of plates. Return to 37° C. for 48 h or 96 h as indicated.
(§6) MTS Assay: The reagents from CellTiter 96 kit (Promega Corporation, Madison, Wis.) were thawed at room temperature in the dark for 1 h. The 96-well plate was removed from the 37° C. incubator at 48 h after drug treatment. […] The absorbance of each well at 490 nm and 650 nm was determined using the Flexstation 3 microplate reader in endpoint mode every hour for 3 h. The solutions in the wells were mixed prior to each reading. […]

[2] = TC50 MTS assay: RPK9 cells (deficient in deoxycytidine kinase); format: cell-based; details: human, 48 h drug treatment, dCK-deficient cells
Method: as §4, §5, §6

HCV luciferase replicon [3] = assay: HCV luciferase replicon inhibition in the presence of carboxylesterase inhibitors (benzil or BNPP); format: cell-based; details: Hepatitis C virus, 48 h
Method: The cells were counted using a hemocytometer, and then diluted to 1×10^5 cells/mL in DMEM with 10% FBS and […] G415. 100 μL of the cells (10,000 cells) were plated per well in a white-walled 96-well plate according to the template on the following page.
Treating the cells: Media (DMEM with 2% FBS) was pre-warmed to 37° C. Stock solutions (100 mM) of Benzil and BNPP were diluted in DMEM with 2% FBS to 100 μM. […] The cells were returned to 37° C. for 1 h. […] The 1.0 mM dilution of GCB or GTB in DMEM+2% FBS+100 μM Benzil or BNPP was serially diluted in DMEM with 2% FBS, 0.5% DMSO, 100 μM benzil or BNPP. At the end of the 1 h incubation, the 96-well plate with cells plated as above was removed from the 37° C. incubator, and 50 μL media diluted test drug and 100 μM of benzil or BNPP was added to each well. The plates were gently rocked to mix the media. Also included were conditions with inhibitors alone (DMEM+2% FBS+0.5% DMSO+100 μM benzil or BNPP) and media alone (DMEM+2% FBS+0.5% DMSO) in triplicate. The plates were returned to 37° C. for 48 h.

HCV luciferase replicon [4] = assay: Isobologram analysis of synergism with other anti-viral compounds; format: cell-based, hepatitis C virus (HCV)
Method: Isobologram analysis was carried to assess the potential synergistic interaction of representative disclosed compounds with representative antiviral compounds. The isobolgram analysis was conducted as previously described by Chou and Talalay (see Chou T. C. and Talalay P. “Analysis of combined drug effects: a new look at a very old problem.” Trends Pharmacol Sci 1983; 4:450-4; and Chou T. C. and Talalay P. “Quantitative analysis of dose-effect relationships: the combined effects of multiple drugs or enzyme inhibitors.” Adv Enzyme Regul 1984; 22:27-55). The definitions of synergism are those described by Chou (see Chou, T. C. (2006) Theoretical basis, experimental design, and computerized simulation of synergism and antagonism in drug combination studies. Pharmacol Rev. 58(3):621-81).
Data for the isobologram analysis are shown in FIGS. 12-15, and shown in each figure are the test compound concentrations and corresponding combination index.

Row | SMILES | CC50 at 48 h (in vitro) [nM] | TC50 (Huh7 cells) [nM] | CC50 at 48 h [1] [µM] | CC50 at 48 h [2] [µM] | IC50 (HCV luciferase replicon [3]; 100 μM BNPP, read-out: IC50 (nM) +BNPP) [nM] | IC50 (HCV luciferase replicon [3]; 100 μM benzil, read-out: IC50 (nM) +Benzil) [nM] | IC50 (HCV luciferase replicon [3]; no carboxylesterase inhibitor, read-out: IC50 (nM) −Benzil −BNPP) [nM] | Interaction Type with BMS-790052 (HCV luciferase replicon [4]; Compound 2 = BMS-790052) | Interaction Type with PSI-7977 (HCV luciferase replicon [4]; Compound 2 = PSI-7977)
1 | O=C(Nc1ccn([C@@H]2O[C@H](CO)[C@@H](O)C2(F)F)c(=O)n1)c1cc(Cl)cc(Cl)c1 [GCB, N^4-(3,5-Dichlorobenzoyl)gemcitabine] | 110000 ± 36000 | > 100000 | – | – | – | – | – | – | –
2 | COc1cc(C(=O)Nc2ccn([C@@H]3O[C@H](CO)[C@@H](O)C3(F)F)c(=O)n2)cc(OC)c1OC [GTB, N^4-(3,4,5-Trimethoxybenzoyl)gemcitabine] | 495000 ± 97000 | – | 1.69 ± 0.1 | > 500 | 81 | 125 | 49 | moderate synergism | moderate antagonism

Source: US9744186B2 (priority 2012, dated 2017)
